Drawing on the supplement of paper PMC11616607, this text covers drug sensitivity score for 15 molecules.

Molecules are shown by their SMILES.

One test deals with Ovsaho. Put plainly: drug sensitivity score (DSS) from 5-point dose-response viability curve (DSS (area-under-curve based score)); higher = more sensitive (stronger growth inhibition or killing); extreme values may be limits of the assay. The settings on record: exposure time: 72 h; concentration range: 5 concentrations over 10,000-fold range. In short, it runs like this:
(§1)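 Ovarian cancer and normal ovarian cell lines were tested in 384-well plates, with drugs dispensed acoustically (Echo 550) in DMSO or water at five concentrations covering a 10,000-fold range. After 1,500 cells per well were added, plates were incubated for 3 days at 37°C and 5% CO2, and viability was read by CellTiter-Glo luminescence on a PHERAstar FS. Breeze software gave a drug sensitivity score for each cell line and drug, where a higher score means greater sensitivity. A value of zero means no response.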
On to `Cc1cc(Nc2cc(N3CCN(C)CC3)nc(/C=C/c3ccccc3)n2)n[nH]1` [ENMD-2076], for which the drug sensitivity score stood at 8.8.

`Cc1cc(C)c(CNC(=O)c2cc(-c3ccc(CN4CCOCC4)cc3)cc3c2cnn3C2CCCC2)c(=O)[nH]1` [EPZ-5687] gave a drug sensitivity score of 0.

`NC(=O)/C(=C/n1cnc(-c2cc(C(F)(F)F)cc(C(F)(F)F)c2)n1)c1cncnc1` [Eltanexor] showed a drug sensitivity score of 19.3.

As for `CC(C)(O)CNc1nc(Nc2ccnc(C(F)(F)F)c2)nc(-c2cccc(C(F)(F)F)n2)n1` [Enasidenib], the drug sensitivity score was 0.

Take `COC(=O)N[C@@H](C)CNc1nccc(-c2cn(C(C)C)nc2-c2cc(Cl)cc(NS(C)(=O)=O)c2F)n1` [Encorafenib]: the drug sensitivity score is 0.1.

Molecule `C[C@@H]1CN(C(=O)c2ccc(NC(=O)c3cc(O[C@H](C)c4c(Cl)ccc(F)c4Cl)c(N)nn3)cc2)C[C@H](C)N1` [Ensartinib] had a drug sensitivity score of 0.

`Nc1ccccc1NC(=O)c1ccc(CNC(=O)OCc2cccnc2)cc1` [Entinostat] yielded a drug sensitivity score of 2.4.

As to `c1cn2cc(-c3ccc4cn[nH]c4c3)nc(Nc3ccc(N4CCOCC4)cc3)c2n1` [Entospletinib], the drug sensitivity score was 0.

`CN1CCN(c2ccc(C(=O)Nc3n[nH]c4ccc(Cc5cc(F)cc(F)c5)cc34)c(NC3CCOCC3)c2)CC1` [Entrectinib] yielded a drug sensitivity score of 1.5.

`CNC(=O)c1ccc(N2C(=S)N(c3ccc(C#N)c(C(F)(F)F)c3)C(=O)C2(C)C)cc1F` [Enzalutamide] came in with a drug sensitivity score of 2.3.

The molecule `Cn1cc(C2=C(c3cn(C4CCN(Cc5ccccn5)CC4)c4ccccc34)C(=O)NC2=O)c2ccccc21` [Enzastaurin] had a drug sensitivity score of 2.

In the case of `NS(=O)(=O)NCCNc1nonc1/C(=N/O)Nc1ccc(F)c(Br)c1` [Epacadostat], the drug sensitivity score is 0.1.

The molecule `COc1cccc2c1C(=O)c1c(O)c3c(c(O)c1C2=O)C[C@@](O)(C(=O)CO)C[C@@H]3O[C@H]1C[C@H](N)[C@@H](O)[C@H](C)O1` [Epirubicin] displayed a drug sensitivity score of 7.1.

`CCOc1ccccc1-n1c(C(C)N2CCN(C(=O)COc3ccc(Cl)cc3)CC2)nc2ccccc2c1=O` (stereo not given) [Erastin]: the drug sensitivity score was 0.

In the case of `COc1cc(OC)cc(N(CCNC(C)C)c2ccc3ncc(-c4cnn(C)c4)nc3c2)c1` [Erdafitinib], the drug sensitivity score stood at 0.

The subject of a further test is OVCAR5. The test is described as above. To be noted: exposure time: 72 h; concentration range: 5 concentrations over 10,000-fold range. The essentials:
as §1
The molecule `Cc1cc(Nc2cc(N3CCN(C)CC3)nc(/C=C/c3ccccc3)n2)n[nH]1` [ENMD-2076] came in with a drug sensitivity score of 9.6.

`Cc1cc(C)c(CNC(=O)c2cc(-c3ccc(CN4CCOCC4)cc3)cc3c2cnn3C2CCCC2)c(=O)[nH]1` [EPZ-5687] registered a drug sensitivity score of 1.8.

`NC(=O)/C(=C/n1cnc(-c2cc(C(F)(F)F)cc(C(F)(F)F)c2)n1)c1cncnc1` [Eltanexor] displayed a drug sensitivity score of 14.8.

In the case of `CC(C)(O)CNc1nc(Nc2ccnc(C(F)(F)F)c2)nc(-c2cccc(C(F)(F)F)n2)n1` [Enasidenib], the drug sensitivity score was determined as 0.

`COC(=O)N[C@@H](C)CNc1nccc(-c2cn(C(C)C)nc2-c2cc(Cl)cc(NS(C)(=O)=O)c2F)n1` [Encorafenib] displayed a drug sensitivity score of 0.

With `C[C@@H]1CN(C(=O)c2ccc(NC(=O)c3cc(O[C@H](C)c4c(Cl)ccc(F)c4Cl)c(N)nn3)cc2)C[C@H](C)N1` [Ensartinib], the drug sensitivity score was determined as 1.8.

Molecule `Nc1ccccc1NC(=O)c1ccc(CNC(=O)OCc2cccnc2)cc1` [Entinostat] came in with a drug sensitivity score of 9.9.

In turn, `c1cn2cc(-c3ccc4cn[nH]c4c3)nc(Nc3ccc(N4CCOCC4)cc3)c2n1` [Entospletinib] returned a drug sensitivity score of 1.3.

The molecule `CN1CCN(c2ccc(C(=O)Nc3n[nH]c4ccc(Cc5cc(F)cc(F)c5)cc34)c(NC3CCOCC3)c2)CC1` [Entrectinib] had a drug sensitivity score of 1.

In the case of `CNC(=O)c1ccc(N2C(=S)N(c3ccc(C#N)c(C(F)(F)F)c3)C(=O)C2(C)C)cc1F` [Enzalutamide], the drug sensitivity score came to 0.2.

In turn, `Cn1cc(C2=C(c3cn(C4CCN(Cc5ccccn5)CC4)c4ccccc34)C(=O)NC2=O)c2ccccc21` [Enzastaurin] showed a drug sensitivity score of 2.6.

In turn, `NS(=O)(=O)NCCNc1nonc1/C(=N/O)Nc1ccc(F)c(Br)c1` [Epacadostat] returned a drug sensitivity score of 0.3.

In turn, `COc1cccc2c1C(=O)c1c(O)c3c(c(O)c1C2=O)C[C@@](O)(C(=O)CO)C[C@@H]3O[C@H]1C[C@H](N)[C@@H](O)[C@H](C)O1` [Epirubicin] returned a drug sensitivity score of 5.1.

As to `CCOc1ccccc1-n1c(C(C)N2CCN(C(=O)COc3ccc(Cl)cc3)CC2)nc2ccccc2c1=O` (stereo not given) [Erastin], the drug sensitivity score stood at 0.9.

In the case of `COc1cc(OC)cc(N(CCNC(C)C)c2ccc3ncc(-c4cnn(C)c4)nc3c2)c1` [Erdafitinib], the drug sensitivity score is 0.

For the next test, the system named is OVCAR8. Described as above. The settings on record: exposure time: 72 h; concentration range: 5 concentrations over 10,000-fold range. In short, it runs like this: as §1
The molecule `Cc1cc(Nc2cc(N3CCN(C)CC3)nc(/C=C/c3ccccc3)n2)n[nH]1` [ENMD-2076] returned a drug sensitivity score of 8.

`Cc1cc(C)c(CNC(=O)c2cc(-c3ccc(CN4CCOCC4)cc3)cc3c2cnn3C2CCCC2)c(=O)[nH]1` [EPZ-5687]: the drug sensitivity score was 0.

On to `NC(=O)/C(=C/n1cnc(-c2cc(C(F)(F)F)cc(C(F)(F)F)c2)n1)c1cncnc1` [Eltanexor], for which the drug sensitivity score is 21.5.

The molecule `CC(C)(O)CNc1nc(Nc2ccnc(C(F)(F)F)c2)nc(-c2cccc(C(F)(F)F)n2)n1` [Enasidenib] gave a drug sensitivity score of 0.9.

With `COC(=O)N[C@@H](C)CNc1nccc(-c2cn(C(C)C)nc2-c2cc(Cl)cc(NS(C)(=O)=O)c2F)n1` [Encorafenib], the drug sensitivity score was 0.

Regarding `C[C@@H]1CN(C(=O)c2ccc(NC(=O)c3cc(O[C@H](C)c4c(Cl)ccc(F)c4Cl)c(N)nn3)cc2)C[C@H](C)N1` [Ensartinib], the drug sensitivity score was 0.

In turn, `Nc1ccccc1NC(=O)c1ccc(CNC(=O)OCc2cccnc2)cc1` [Entinostat] had a drug sensitivity score of 9.3.

The molecule `c1cn2cc(-c3ccc4cn[nH]c4c3)nc(Nc3ccc(N4CCOCC4)cc3)c2n1` [Entospletinib] returned a drug sensitivity score of 1.7.

In the case of `CN1CCN(c2ccc(C(=O)Nc3n[nH]c4ccc(Cc5cc(F)cc(F)c5)cc34)c(NC3CCOCC3)c2)CC1` [Entrectinib], the drug sensitivity score came out at 0.

For the molecule `CNC(=O)c1ccc(N2C(=S)N(c3ccc(C#N)c(C(F)(F)F)c3)C(=O)C2(C)C)cc1F` [Enzalutamide], the drug sensitivity score was 0.

`Cn1cc(C2=C(c3cn(C4CCN(Cc5ccccn5)CC4)c4ccccc34)C(=O)NC2=O)c2ccccc21` [Enzastaurin] gave a drug sensitivity score of 4.2.

`NS(=O)(=O)NCCNc1nonc1/C(=N/O)Nc1ccc(F)c(Br)c1` [Epacadostat]: the drug sensitivity score was 0.

Turning to `COc1cccc2c1C(=O)c1c(O)c3c(c(O)c1C2=O)C[C@@](O)(C(=O)CO)C[C@@H]3O[C@H]1C[C@H](N)[C@@H](O)[C@H](C)O1` [Epirubicin], the drug sensitivity score was 8.9.

In turn, `CCOc1ccccc1-n1c(C(C)N2CCN(C(=O)COc3ccc(Cl)cc3)CC2)nc2ccccc2c1=O` (stereo not given) [Erastin] registered a drug sensitivity score of 7.9.

In turn, `COc1cc(OC)cc(N(CCNC(C)C)c2ccc3ncc(-c4cnn(C)c4)nc3c2)c1` [Erdafitinib] yielded a drug sensitivity score of 0.
